Laboratory results as given in publication PMC8838037, “Design, Synthesis and Molecular Docking Study of Novel 3-Phenyl-β-Alanine-Based Oxadiazole Analogues as Potent Carbonic Anhydrase II Inhibitors” (Molecules, 2022).

Molecular target: T1, bovine erythrocyte CA-II (Bos taurus, UniProt P00921)
T1 construct: purified bovine erythrocyte CA-II; from tissue; host or cells: bovine erythrocytes
Test: Carbonic anhydrase II inhibition assay (colorimetric, 4-nitrophenyl acetate substrate)
Format: biochemical
Settings: for IC50: N/A = Not active; for % Inhibition: test concentration not given
Method: 20 µL of tested compounds were incubated with the enzyme carbonic anhydrase II (EC 4.2.1.1) for 15 min in 96-well flat bottom plate. The rate of product formation was monitored with the addition of 20 µL of 4-NPA as substrate, prepared in ethanol at the final concentration of 0.7 mM at 25 °C for 30 min with regular intervals of 1 min, by using spectrophotometer (xMark^TM Microplate, Bio-Rad, Hercules, CA, USA). HEPES-tris was used as a buffer for the reaction at the final concentration of 20 mM at pH 7.4.

T1 sequence (P00921 2-260): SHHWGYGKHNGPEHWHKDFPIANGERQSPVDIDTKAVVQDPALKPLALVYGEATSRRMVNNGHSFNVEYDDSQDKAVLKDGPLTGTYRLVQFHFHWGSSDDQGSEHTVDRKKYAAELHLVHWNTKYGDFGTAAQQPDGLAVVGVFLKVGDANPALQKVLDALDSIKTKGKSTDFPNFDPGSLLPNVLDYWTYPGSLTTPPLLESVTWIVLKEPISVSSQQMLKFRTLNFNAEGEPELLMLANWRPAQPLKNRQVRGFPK

| Molecule | IC50 | % Inhibition |
| --- | --- | --- |
| CC(C)(C)OC(=O)N[C@@H](Cc1nnc(-c2ccc(O)cc2)o1)c1ccccc1 [Compound 4i, Tert-Butyl (S)-(2-(5-(4-hydroxyphenyl)-1,3,4-oxadiazol-2-yl)-1-phenylethyl) carbamate] | 18.1 ± 1.31 µM | 58.0% |
| CC(C)(C)OC(=O)N[C@@H](Cc1nnc(-c2ccccc2O)o1)c1ccccc1 [Compound 4b, Tert-Butyl (S)-(2-(5-(2-hydroxyphenyl)-1,3,4-oxadiazol-2-yl)-1-phenylethyl) carbamate] | 19.1 ± 0.88 µM | 93.5% |
| CC(C)(C)OC(=O)N[C@@H](Cc1nnc(-c2ccccn2)o1)c1ccccc1 [Compound 4a, Tert-Butyl (S)-(1-phenyl-2-(5-(pyridin-2-yl)-1,3,4-oxadiazol-2-yl)ethyl) carbamate] | 12.1 ± 0.86 µM | 96.2% |
| COc1ccc(-c2nnc(C[C@H](NC(=O)OC(C)(C)C)c3ccccc3)o2)cc1OC [Compound 4j, Tert-Butyl (S)-(2-(5-(3,4-dimethoxyphenyl)-1,3,4-oxadiazol-2-yl)-1-phenylethyl) carbamate] | 26.6 ± 1.47 µM | 96.7% |
| CC(C)(C)OC(=O)N[C@@H](Cc1nnc(-c2ccc(Cl)cc2)o1)c1ccccc1 [Compound 4l, Tert-Butyl (S)-(2-(5-(4-chlorophenyl)-1,3,4-oxadiazol-2-yl)-1-phenylethyl) carbamate] | 53.6 ± 0.96 µM | 67.6% |
| Tert-Butyl(S)-(1-phenyl-2-(5-phenyl-1,3,4-oxadiazol-2-yl)ethyl) carbamate [Compound 4c] | 13.8 ± 0.64 µM | 95.5% |
| COc1ccc(OC)c(-c2nnc(C[C@H](NC(=O)OC(C)(C)C)c3ccccc3)o2)c1 [Compound 4k, Tert-Butyl (S)-(2-(5-(2,5-dimethoxyphenyl)-1,3,4-oxadiazol-2-yl)-1-phenylethyl) carbamate] | 22.4 ± 1.43 µM | 87.8% |
| Tert-Butyl(S)-(2-(5-(4-methoxyphenyl)-1,3,4-oxadiazol-2-yl)-1-phenylethyl) carbamate [Compound 4d] | – | 29.0% |
